Values joined by “and” are separate entries in the source; they are usually repeats but may differ in a detail not shown here. Equal values may be shown once.
Legend:
Format in all cases: in vivo
[1] = tested on: Abutilon theophrasti (ABUTH); assay: Adjuvant efficacy with nicosulfuron, glasshouse spray test; conditions: nicosulfuron WG, mean over 15 and 60 g/ha and 3 replicates; adjuvant 0.2% v/v (none in No Adjuvant rows); % leaf area killed, 21 days after application; Tests 1-4 separate runs
Method: (§1) The efficacy of adjuvants 1-12 as adjuvants for the herbicide nicosulfuron were tested in a glasshouse against four weed species sown into standard soil in pots and cultivated under controlled conditions in a glasshouse (at 24/18° C. day/night; 16 hours light; 65% humidity). Nicosulfuron was added to the spray tank as a standard WG (water dispersible granule) formulation.
(§2) The spray tests were also carried out using nicosulfuron in conjunction with adjuvants 1-12. The adjuvant was added to the spray solution at a rate of 0.2% v/v. All spray solutions also contained 12.5% v/v of iso-Propanol. The weed species and their BBCH growth stage at spraying were Abutilon theophrasti (ABUTH; growth stage 13), Chenopodium album (CHEAL; growth stage 13-14), Digitaria sanguinalis (DIGSA; growth stage 11), and Setaria viridis (SETVI; growth stage 13). Each spray test was replicated three times. The test plants were then grown in a glasshouse under controlled conditions (at 24/18° C. day/night; 16 hours light; 65% humidity) and watered twice a day. The efficacy of the herbicide was assessed visually and expressed as a percentage of the leaf area killed. Samples were assessed at a time period of 21 days following application. The results shown in Table 1 below are mean averages over the two rates of nicosulfuron, and the three replicates.

[2] = tested on: Chenopodium album (CHEAL); assay: as above; conditions: nicosulfuron WG, mean over 15 and 60 g/ha and 3 replicates; adjuvant 0.2% v/v (none in No Adjuvant rows); % leaf area killed, 21 days after application; Tests 1-4 separate runs
Method: as §1, §2

[3] = tested on: Digitaria sanguinalis (DIGSA); assay: as above; conditions: nicosulfuron WG, mean over 15 and 60 g/ha and 3 replicates; adjuvant 0.2% v/v (none in No Adjuvant rows); % leaf area killed, 21 days after application; Tests 1-4 separate runs
Method: as §1, §2

Setaria viridis (SETVI) [4] = assay: as above; conditions: nicosulfuron WG, mean over 15 and 60 g/ha and 3 replicates; adjuvant 0.2% v/v (none in No Adjuvant rows); % leaf area killed, 21 days after application; Tests 1-4 separate runs
Method: as §1, §2

[5] = tested on: four weed species (ABUTH, CHEAL, DIGSA, SETVI); assay: Adjuvant efficacy with nicosulfuron, glasshouse spray test, average over all species; conditions: nicosulfuron WG, mean over 15 and 60 g/ha, adjuvant 0.2% v/v (none in No Adjuvant rows), 21 days, average of ABUTH
Method: as §1, §2

[6] = tested on: Digitaria sanguinalis (DIGSA); assay: Adjuvant efficacy with mesotrione, glasshouse spray test; conditions: mesotrione SC, mean over 30 and 60 g/ha and 3 replicates; adjuvant 0.2% v/v (none in No Adjuvant rows); % leaf area killed, 21 days after application; Tests 1-4 separate runs
Method: (§3) The efficacy of adjuvants 1-12 as an adjuvant for the herbicide mesotrione was tested in a glasshouse against four weed species sown into standard soil in pots and cultivated under controlled conditions in a glasshouse (at 24/18° C. day/night; 16 hours light; 65% humidity). Mesotrione was added to the spray tank as a standard SC (suspension concentrate) formulation.
(§4) The spray tests were also carried out using mesotrione in conjunction with adjuvants 1-12. The adjuvants were added to the spray solution at a rate of 0.2% v/v unless otherwise stated. All spray solutions also contained 10% w/w of iso-Propanol. The weed species and their BBCH growth stage at spraying were Brachiaria platyphylla (BRAPP; growth stage 13-14) or Brachiaria plantaginea (BRAPL; growth stage 13-14), Commelina benghalensis (COMBE; growth stage 13), Digitaria sanguinalis (DIGSA; growth stage 14), and Polygonum convolvulus (POLCO; growth stage 13-14). Each spray test was replicated three times.
(§5) The test plants were then grown in a glasshouse under controlled conditions (at 24/18° C. day/night; 16 hours light; 65% humidity) and watered twice a day. The efficacy of the herbicide was assessed visually and expressed as a percentage of the leaf area killed. Samples were assessed at a time period of 21 days following application. The results shown in Table 3 below are mean averages over the two rates of mesotrione and the three replicates.

[7] = tested on: Polygonum convolvulus (POLCO); assay: as above; conditions: mesotrione SC, mean over 30 and 60 g/ha and 3 replicates; adjuvant 0.2% v/v (none in No Adjuvant rows); % leaf area killed, 21 days after application; Tests 1-4 separate runs
Method: as §3, §4, §5

[8] = tested on: Alopecurus myosuroides (ALOMY); assay: Adjuvant efficacy with pinoxaden, glasshouse spray test; conditions: pinoxaden EC, mean over 7.5 and 15 g/ha and 3 replicates; adjuvant 0.2% v/v (none in No Adjuvant rows); % leaf area killed, 21 days after application; Tests 1-4 separate runs
Method: (§6) The efficacy of adjuvants 1-12 as adjuvants for the herbicide pinoxaden were tested in a glasshouse against four weed species, sown into standard soil in pots and cultivated under controlled conditions in a glasshouse (at 20/16° C. day/night; 16 hours light; 65% humidity). Pinoxaden was added to the spray tank as a standard EC (emulsifiable concentrate) formulation.
(§7) The spray tests were also carried out using pinoxaden in conjunction with adjuvants 1-12. The adjuvants were added to the spray solution at a rate of 0.2% v/v unless otherwise stated. All spray solutions also contained 10% w/w of iso-Propanol. The weed species and their BBCH growth stage at spraying were Avena fatua (AVEFA; growth stage 12), Lolium perenne (LOLPE; growth stage 13), Alopecurus myosuroides (ALOMY; growth stage 13), and Setaria viridis (SETVI; growth stage 13-14). Each spray test was replicated three times. The test plants were then grown in a glasshouse under controlled conditions (at 20/16° C. day/night; 16 hours light; 65% humidity) and watered twice a day. The efficacy of the herbicide was assessed visually and expressed as a percentage of the leaf area killed. Samples were assessed at a time period of 21 days following application. The results shown in Table 4 below are mean averages over the two rates of pinoxaden, and the three replicates.

Avena fatua (AVEFA) = assay: as above; conditions: pinoxaden EC, mean over 7.5 and 15 g/ha and 3 replicates; adjuvant 0.2% v/v (none in No Adjuvant rows); % leaf area killed, 21 days after application; Tests 1-4 separate runs
Method: as §6, §7

Lolium perenne (LOLPE) = assay: as above; conditions: pinoxaden EC, mean over 7.5 and 15 g/ha and 3 replicates; adjuvant 0.2% v/v (none in No Adjuvant rows); % leaf area killed, 21 days after application; Tests 1-4 separate runs
Method: as §6, §7

Setaria viridis (SETVI) [9] = assay: as above; conditions: pinoxaden EC, mean over 7.5 and 15 g/ha and 3 replicates; adjuvant 0.2% v/v (none in No Adjuvant rows); % leaf area killed, 21 days after application; Tests 1-4 separate runs
Method: as §6, §7

[10] = tested on: four weed species (ALOMY, AVEFA, LOLPE, SETVI); assay: Adjuvant efficacy with pinoxaden, glasshouse spray test, average over all species; conditions: pinoxaden EC, mean over 7.5 and 15 g/ha, adjuvant 0.2% v/v (none in No Adjuvant rows), 21 days, average of ALOMY
Method: as §6, §7

Compound	Mean % Herbicidal Activity ABUTH [1]	Mean % Herbicidal Activity CHEAL [2]	Mean % Herbicidal Activity DIGSA [3]	Mean % Herbicidal Activity SETVI (Setaria viridis (SETVI) [4])	Mean % Herbicidal Activity Average over all Species [5]	Mean % Herbicidal Activity DIGSA [6]	Mean % Herbicidal Activity POLCO [7]	Mean % Herbicidal Activity ALOMY [8]	Mean % Herbicidal Activity AVEFA (Avena fatua (AVEFA))	Mean % Herbicidal Activity LOLPE (Lolium perenne (LOLPE))	Mean % Herbicidal Activity SETVI (Setaria viridis (SETVI) [9])	Mean % Herbicidal Activity Average over all Species [10]
CCCCCCCCC=CCCCCCCCCOc1cc(OCCOCCOCCOCCOCCOCCOCCOCCOCCOCCOC)ncn1 [Adjuvant 10]	58%	80%	88%	97%	81%	84%	95%	9%	80%	25%	89%	50%
CCCCCCOc1cc(OCCOCCOCCOCCOCCOCCOCCOCCOCCOCCOC)ncn1 [Adjuvant 2]	61%	80%	89%	97%	82%	79%	94%	16%	56%	28%	87%	47%
CCCCCCOc1cc(OCCOCCOC)ncn1 [Adjuvant 1]	64%	84%	88%	93%	83%	81%	81%	20%	78%	41%	82%	55%
CCCCCCCCCOc1cc(OCCOCCOCCOCCOCCOCCOCCOCCOCCOCCOC)ncn1 [Adjuvant 5]	49%	63%	49%	91%	63%	72%	94%	10%	69%	21%	63%	41%
CCCCCCCCC=CCCCCCCCCOc1cc(OCCOCCOC)ncn1 [Adjuvant 9]	57%	82%	88%	95%	80%	82%	92%	17%	83%	40%	91%	58%
CCCCCCCCCCCCOc1cc(OCCOCCOCCOCCOCCOCCOCCOCCOCCOCCOC)ncn1 [Adjuvant 7]	59%	86%	84%	96%	81%	80%	70%	63%	98%	78%	97%	84%
CCCCCCCCCCCCCCCCOc1cc(OCCOCCOCCOCCOCCOCCOCCOCCOCCOCCOC)ncn1 [Adjuvant 8]	53% and 66% and 74%	85% (2×) and 83%	87% and 93% and 89%	96% (2×) and 95%	80% and 85% and 86%	84% and 81% and 83%	82% and 92% and 93%	2% and 15% and 22%	94% and 78% and 84%	87% and 42% and 73%	94% and 88% and 89%	69% and 56% and 67%
CCCCCCOc1cc(OCCOCCOCCOCCOCCOCCOCCOCCOCCOCCOCCOCCOCCOCCOCCOCCOCCOCCOCCOCCOC)ncn1 [Adjuvant 3]	49%	76%	88%	93%	76%	83%	92%	15%	52%	22%	88%	44%

Reference: patent US11439148B2, “Pyrimidine derivatives” (SYNGENTA PARTICIPATIONS AG, priority 2017, dated 2022)
